Tests used:
Type in all cases: cell-based, human
HNDFs [1] = assay: SA-β-gal senescence assay in HG-induced HNDFs; settings: for HG-induced SA-β-gal activity, kinase inhibitors: inhibitor 30 μM + HG 30 mM, 72 h (FIG. 4H); for SA-β-gal positive cells: 10 μM compound + HG 30 mM, 72 h, HG alone 9.59-fold (FIG. 2B)
Method: Next, the protective effects of antcins on HG-induced HNDF senescence are examined. In FIG. 2B, cells were incubated with ANA (10 μM), ANH (10 μM) and ANM (10 μM) in the presence of HG (30 mM) for 72 h. Cellular senescence is determined by SA-β-gal activity. […] After cells are co-incubated with HG and antcins (ANA, ANH and ANM) for 72 h, senescence is measured by SA-β-gal assay.
Therefore, in order to examine whether the ROS inhibitory effect may be extended to suppress HG-induced senescence, HG-induced senescenece eliminated by ANM is examined. In FIG. 4B, HNDFs are incubated with ANM (10 μM) or NAC (100 μM) in the presence or absence of HG (30 mM) for 72 h. Cellular senescence is determined by SA-β-gal assay. […] As is shown, cells are co-incubated with HG and ANM or NAC for 72 h.
Senescence-associated β-galactosidase (SA-β-gal) activity is determined in formaldehyde-fixed histochemical staining kit according to the manufacturer's instructions (Cell Signaling Technology, Danvers, Calif.). Briefly, cells are grown in 6-well plates at a density of 5×10^4 cells/well, and incubated with HG or test samples for 48 h (HUVECs) or 72 h (HNDFs). After incubation, cells are stained with SA-β-gal staining solution at pH 6.0 overnight and then the development of blue staining is observed and photographed under a bright-field microscope (Motic Electric Group, Xiamen, P.R. China).

Nrf2 = assay: ARE luciferase reporter assay (Nrf2 transcriptional activity) in HNDFs; settings: inhibitor 30 μM 2 h, then ANM 10 μM + HG 30 mM 6 h
Method: Therefore, to determine whether ANM augments Nrf2 transcriptional activity, ARE-harboring luciferase reporter assay is used. In FIG. 5E, to determine the Nrf2 transcriptional activity, HNDFs are transiently transfected with ARE promoter construct using lipofectamine and incubated with ANM (10 μM) or NAC (100 μM) in the presence or absence of HG (30 mM) for 6 h. Cell lysates are mixed with luciferase reagents and quantified using an illuminometer. Relative ARE promoter activity is calculated by dividing the relative luciferace unit (RLU) of treated cells by RLU of untreated cells (NG).
Activation of P13K/AKT and mitogen-activated protein kinases (MAPKs), including ERK1/2, JNK/SAPK and p38 MAPK, facilitates Nrf2 transcriptional activation in a variety of human cell lines. […] To elucidate the upstream signaling events involved in ANM-induced Nrf2 transcriptional activity, cells are pre-incubated with pharmacological inhibitors of P13K/AKT (LY294002), ERK1/2 (PD98059), SAPK/JNK (SP600125) and p38MAPK (SB203580) for 2 h and treated with ANM for 6 h in the presence of HG. In FIG. 5G, HNDFs are pre-incubated with AKT, ERK1/2, JNK/SAPK and p38 MAPK inhibitors, including LY294002 (LY, 30 μM), PD98059 (PD, 30 μM), SP600125 (SP, 30 μM) and SB203580 (SB, 30 μM), respectively, for 2 h and then incubated with ANM (10 μM) in the presence of HG (30 mM) for 6 h. Cytoplasmic and nuclear fractions are prepared and subjected to western blot analysis. GAPDH and histone H3 are served as internal controls for the cytoplasmic and nuclear fraction, respectively.
ARE promoter activity is measured using a dual-luciferase reporter assay system (Promega, Madison, Wis.). […] Cells are then transfected with ARE plasmid (Qiagen, Hilden, Germany) using Lipofectamine 2000 (Invitrogen) and incubated for 36 h. […] The cell lysate is prepared and incubated with luciferase agents and the relative luminescence intensity is quantified using a spectrophotometer (Hidex Oy, Turku, Finland).

p53 and FoxO1 = assay: Western blot of p53 and FoxO1 acetylation/phosphorylation in HNDFs; settings: pharmacological inhibitor in the presence of HG (FIG. 4G)
Method: It is well known that p16^INK4A and p21^CIP1 are regulated by transcription factors p53 and FoxO1 followed by acetylation. […] In addition, p53 phosphorylation at Ser15 by their upstream kinases promotes transcriptional activation in response to DNA damage.
To further examine the phenomenon that HG-induced p53 activation is relayed by the p38 MAPK or JNK/SAPK cascade, cells are incubated with corresponding pharmacological inhibitors, SB203580, SP600125, PD98059 and LY294002 for p38MAPK, JNK/SAPK, ERK1/2 and P13K/AKT, respectively in the presence of HG.
(§1) The protein expression levels of SIRT-1, SIRT-6, p21^CIP1, SMP30, p53, FoxO and acetylation of p53 and FoxO1 are determined by western blot analysis.
(§2) Cells are lysed by either RIPA lysis buffer or nuclear and cytoplasmic extraction reagents (Thermo Fisher Scientific). Protein concentrations are determined by Bio-Rad protein assay reagent (Bio-Rad Laboratories, Hercules, Calif.). Equal amounts of protein samples (60 μg) are separated by 7-12% SDS-PAGE and the separated proteins are transferred onto polyvinylidene […] (PVDC) membrane overnight. The transferred protein membranes are blocked with 5% non-fat dried milk for 30 min, followed by incubation with specific primary antibodies overnight, and either horseradish peroxidase-conjugated goat anti-rabbit or anti-mouse antibodies for 2 h. The blots are detected using VL Chemi-Smart 3000 (Viogene Biotek, Sunnyvale, Calif.) with the enhanced chemiluminescence (ECL) western blotting reagent (Millipore, Billerica, Mass.).

SIRT-1, SIRT-3, SIRT-6 = assay: Western blot of SIRT proteins and phos-SIRT-1 in HNDFs; settings: inhibitor 30 μM + HG, 72 h
Method: Total cell lysate is extracted and subjected to western blot analysis to monitor SIRT-1, SIRT-3, SIRT-6 protein levels.
as §1
To further understand the regulation of SIRT-1 by ANM, the effect of ANM on SIRT-1 activation and protein stability is examined under hyperglycemic conditions. In FIG. 7I, cells are incubated with JNK/SAPK or p38 MAPK inhibitors SP600125 (SP, 30 μM) and SB203580 (SB, 30 μM) in the presence of HG for 72 h. The protein expression levels of phos-SIRT-1 and SIRT-1 are determined by western blotting. Results are expressed as mean±S.E.M of three independent experiments. Statistical significance is set at ^ϕP<0.05 as compared to NG vs. HG and *P<0.05 as compared to HG vs. samples. Previous studies have shown that hyperphosphorylation of SIRT-1 at serine 47 (Ser47) is correlated with enhanced endothelial senescence. In addition, persistent activation of JNK1/2 by multiple factors including hyperglycemia induces extensive SIRT-1 proteasome degradation followed by phosphorylation at Ser47. […] Therefore, it is hypothesized that ANM-mediated suppression of JNK1/2 and p38 MAPK activation may have a functional role in the stability of SIRT-1 protein.
as §2

HNDFs (CCD966SK) = assay: MTT cytotoxicity of antcins against HNDFs; settings: for cytotoxicity to HNDFs (in words): MTT, 72 h, up to 20 μM; for IC50: MTT assay, 72 h, 1, 5, 10 and 20 μM tested, read-out: 50% inhibitory concentration (IC50) against HNDFs
Method: Please refer to FIG. 2A˜FIG. 2D, which are views showing HG-induced senescence affected by antcins in HNDFs. As shown in the figures, prior to an investigation, cytotoxicity of antcins against HNDFs is determined. In FIG. 2A, type of antcins are subjected to screen for potential anti-aging agents for skin aging. Names and chemical structures of the antcins are shown in the left and center column, respectively. The cytotoxic effects of antcins against HNDFs are investigated. Briefly, HNDFs are incubated with increasing concentrations (1, 5, 10 and 20 μM) of antcins including ANA, ANB, ANC, ANH, ANK and ANM for 72 h and the cell viability is determined by MTT assay. The 50% inhibitory concentrations (IC50) of each compound against HNDFs are shown in right column.
Cell viability is assessed by MTT colorimetric assay. Briefly, HNDFs (2×10^4cells/well) or HUVECs (5×10^4 cells/well) are seeded in a 24-well culture plate. After treatment with HG (15 and 30 mM) in the presence or absence of samples for 24-72 h, culture media is withdrawn and incubated with MTT (1 mg/mL) in fresh medium for 2 h. The MTT formazan crystals are dissolved in 400 μL of DMSO and the samples are measured at 570 nm […] using an ELISA microplate reader (Bio-Tek Instruments, Winooski, Vt.). The percentage of cell viability (%) is calculated as (A570 of treated cells/A570 of untreated cells)×100.

HNDFs [2] = assay: Trypan blue exclusion cell proliferation assay in HNDFs; settings: antcins 10 μM + HG 30 mM, 72 h, trypan blue exclusion
Method: To further clarify the effect of antcins, HG-induced reduction in cell proliferation is determined. In FIG. 2D, to determine the effect of antcins on cell proliferation efficacy, 5×10^4 cells/well of HNDFs are incubated with antcins in 6-well plates in the presence of HG (30 mM) for 72 h. Number of viable cells is quantified by the tryphan blue exclusion method. Results are expressed as mean±S.E.M of three indipendent expriments. Statistical significance is set at ^ϕP<0.05 as compared to NG vs. HG and *P<0.05 as compared to HG vs. samples. […] Therefore, the molecular mechanism underlying the protective effect of ANM is explored next.
Furthermore, in FIG. 3C, to determine the effect of ANM or NAC on cell proliferation, 5×10^4 cells/well of HNDFs are incubated in a 6-well plate with ANM (10 μM) or NAC (100 μM) in the presence of HG (30 mM) for 72 h. Number of viable cells is quantified by the tryphan blue exclusion method. Results expressed as mean±S.E.M of three independent experiments. Statistical significance is set at ^ϕP<0.05 as compared to NG vs. HG and *P<0.05 as compared to HG vs. samples.
Cell proliferation is evaluated using trypan blue exclusion assay as described previously with minor modification. Cells are plated into 6-well plates at a density of 5×10^4 cells/well. After incubation overnight, cells are treated with test samples in the presence or absence of HG for 24-72 h. Cells exposed to 0.2% Trypan blue are then counted in a hemocytometer, and cells stained with Trypan blue are excluded. Percentage of viable cells is calculated based on the ratio of viable cells to total cell population in each well. The proliferation rate is calculated based on the number of viable cells in HG or sample-treated groups versus the NG-treated group.

[3] = tested on: p16^INK4A, p21^CIP1 and SMP30; assay: Western blot of senescence-associated marker proteins in HNDFs; settings: 10 μM + HG 30 mM, 72 h, western blot
Method: In addition, in FIG. 2C, HNDFs are incubated with ANA (10 μM), ANH (10 μM) and ANM (10 μM) in the presence of HG (30 mM) for 72 h. Senescence-associated marker proteins such as p16^INK4A, p21^CIP1 and SMP30 are determined by western blot analysis.
In order to assess the cellular and molecular basis of the ANM-mediated inhibition of senescence, the expression levels of senescence-associated marker proteins including, p16^INK4A and p21^CIP1 are examined. In FIG. 4D, to determine the effect of ANM on senescence-associated protein expression, HNDFs are incubated with ANM (10 μM) or NAC (100 μM) in the presence or absence of HG (30 mM) for 72 h. Immunoblotting analysis is used to determine the protein levels with corresponding specific antibodies.
as §2

## C[S+]([O-])c1ccc(-c2nc(-c3ccncc3)c(-c3ccc(F)cc3)[nH]2)cc1 (centres unmarked) [SB203580, reference compound]
HNDFs [1]
  HG-induced SA-β-gal activity, kinase inhibitors: barely observed
Nrf2
  ANM-induced ARE luciferase activity after inhibitor pretreatment: partially or barely inhibits
p53 and FoxO1
  HG-induced p16^INK4A expression and p53 phosphorylation, kinase inhibitors: reduced
SIRT-1, SIRT-3, SIRT-6
  SIRT-1 phosphorylation and reduction in SIRT-1, kinase inhibitors: inhibits

## C=C(CC[C@@H](C)[C@H]1CC[C@H]2C3=C(C(=O)C[C@]12C)[C@@]1(C)CCC(=O)[C@@H](C)[C@@H]1C[C@@H]3O)[C@H](C)C(=O)O [ANC, antcin C]
HNDFs (CCD966SK)
  cytotoxicity to HNDFs (in words): did not show significant cytotoxicity

## C=C(CC[C@@H](C)[C@H]1CC[C@H]2C3=C(C(=O)C[C@]12C)[C@@]1(C)CCC(=O)[C@@H](C)[C@@H]1CC3)C(C)C(=O)O (some centres unmarked) [ANA, antcin A]
HNDFs [2]
  cell proliferation (number of viable cells) vs HG group: partially increase
[3]
  HG-induced p16^INK4A and p21^CIP1 protein expression: moderate inhibition
HNDFs (CCD966SK)
  cytotoxicity to HNDFs (in words): did not show significant cytotoxicity
HNDFs [1]
  SA-β-gal positive cells: 7.46 fold

## COc1cccc(-c2cc(=O)c3ccccc3o2)c1N [PD98059, reference compound]
HNDFs [1]
  HG-induced SA-β-gal activity, kinase inhibitors: does not affect
Nrf2
  ANM-induced ARE luciferase activity after inhibitor pretreatment: effectively suppresses
p53 and FoxO1
  HG-induced p16^INK4A expression and p53 phosphorylation, kinase inhibitors: fails to protect

## C=C(CC[C@@H](C)[C@H]1CC[C@H]2C3=C(C(=O)C[C@]12C)[C@@]1(C)CCC(=O)[C@@H](C)[C@@H]1CC3=O)[C@H](C)C(=O)O [ANB, antcin B]
HNDFs (CCD966SK)
  IC50: 7.11 µM
  cytotoxicity to HNDFs (in words): strong cytotoxicity

## C=C(CCC(C)C1CCC2C3=C(C(=O)C(O)C21C)C1(C)CCC(O)C(C)C1CC3=O)C(C)C(=O)O (centres unmarked) [ANH, antcin H]
HNDFs [2]
  cell proliferation (number of viable cells) vs HG group: partially increase
[3]
  HG-induced p16^INK4A and p21^CIP1 protein expression: moderate inhibition
HNDFs (CCD966SK)
  cytotoxicity to HNDFs (in words): did not show significant cytotoxicity
HNDFs [1]
  SA-β-gal positive cells: 8.13 fold

## C=C(CC[C@@H](C)[C@H]1CC[C@H]2C3=C(C(=O)C[C@]12C)[C@@]1(C)CC[C@@H](O)[C@](C)(O)[C@@H]1C[C@@H]3O)C(C)C(=O)O (some centres unmarked) [ANK, antcin K]
HNDFs (CCD966SK)
  IC50: 2.89 µM
  cytotoxicity to HNDFs (in words): strong cytotoxicity

— US20180318199A1, “Pharmaceutical Composition Having Anti-Aging Properties against High-Glucose” (TAIWAN LEADER BIOTECH CORP., priority 2017, published 2018)
